Test results taken from paper PMC12627007, “HIV nucleocapsid proteins as targets for novel 1,2-benzisothiazol-3(2H)-one benzenesulfonamides: synthesis and antiretroviral activity” (Frontiers in Microbiology, 2025).
Read-outs that look alike come from different tables or passages of the source.

How the values were obtained:
[1] = Cytotoxicity in mock-infected MT-4 cells (MTT method); format: cell-based; details: human; for CC50: MT-4, MTT method
Procedure: The activity of the test compounds against the replication of HIV-1 wt and mutant strains (N119, A17, EFV^R, AZT^R, MDR, SAQ^R) and HIV-2 wt in acutely infected cells was based on the inhibition of virus-induced cytopathogenicity in MT-4 and C8166 cells, respectively. Briefly, 50 μL of culture medium containing 1 × 10^4 cells was added to each well of flat-bottom microtitre trays containing 50 μL of culture medium with or without different serial concentrations of test compounds. Then, 20 μL of an HIV suspension (containing the appropriate amount of CCID50 required to cause complete cytopathogenicity on day 4, final multiplicity of infection [m.o.i.] 0.01) was added. After incubation at 37 °C, cell viability was determined using the […] (MTT) method ([Pauwels et al., 1988]). The cytotoxicity of the test compounds was evaluated in parallel with their antiviral activity through the viability of mock-infected, treated cells, as monitored by the MTT method and described elsewhere ([Morellet et al., 1994]).

[2] = microbe, parasite or virus in culture; format: cell-based, HIV-1; details: all tested strains (HIV-1 wt, mutants, HIV-2)
Procedure: (§1) HIV-1IIIB and HIV-2 CBL-20 strains were obtained from the supernatants of persistently infected H9/IIIB and CEM cells, respectively. HIV-1 and HIV-2 stock solutions had titres of 4.5 × 10^7 and 1.4 × 10^6 50% cell culture infectious doses (CCID50)/ml, respectively. […] The K103R + V179D + P225H mutant (EFVR) was derived from an IIIB strain passaged in MT-4 cells in the presence of Efavirenz (up to 2 μM). N119, A17 and EFV^R stock solutions had titres of 1.2 × 10^8, 2.1 × 10^7, and 4.0 × 10^7 CCID50/ml, respectively.
(§2) The activity of the test compounds against the replication of HIV-1 wt and mutant strains (N119, A17, EFV^R, AZT^R, MDR, SAQ^R) and HIV-2 wt in acutely infected cells was based on the inhibition of virus-induced cytopathogenicity in MT-4 and C8166 cells, respectively. Briefly, 50 μL of culture medium containing 1 × 10^4 cells was added to each well of flat-bottom microtitre trays containing 50 μL of culture medium with or without different serial concentrations of test compounds. Then, 20 μL of an HIV suspension (containing the appropriate amount of CCID50 required to cause complete cytopathogenicity on day 4, final multiplicity of infection [m.o.i.] 0.01) was added.

HIV-1 IIIB strain = assay: microbe, parasite or virus in culture; format: cell-based; details: for EC50: Human immunodeficiency virus 1, IIIB; for Selectivity Index (SI = CC50/EC50) HIV-1: IIIB strain, in round brackets
Procedure: as §1, §2

HIV-1 N119 (Y181C) = assay: Inhibition of virus-induced cytopathogenicity in MT-4 cells, NNRTI-resistant mutant N119; format: cell-based; details: for EC50: Human immunodeficiency virus 1, MT4, read-out: EC50 N119; for Selectivity Index (SI = CC50/EC50) N119: in round brackets
Procedure: as §1, §2

[3] = system: HIV-1 A17 (K103N + Y181C); assay: Inhibition of virus-induced cytopathogenicity in MT-4 cells, NNRTI-resistant mutant A17; format: cell-based; details: for EC50: Human immunodeficiency virus 1, MT4, read-out: EC50 A17; for Selectivity Index (SI = CC50/EC50) A17: in round brackets
Procedure: as §1, §2

[4] = system: HIV-1 EFVR (K103R + V179D + P225H); assay: Inhibition of virus-induced cytopathogenicity in MT-4 cells, NNRTI-resistant mutant EFVR; format: cell-based; details: for EC50: Human immunodeficiency virus 1, MT4, read-out: EC50 EFVR; for Selectivity Index (SI = CC50/EC50) EFVR: in round brackets
Procedure: as §1, §2

[5] = system: HIV-1 AZTR (67N, 70R, 215F, 219Q); assay: Inhibition of virus-induced cytopathogenicity in MT-4 cells, NRTI-resistant mutant AZTR; format: cell-based; details: for EC50: Human immunodeficiency virus 1, MT4, read-out: EC50 AZTR; for Selectivity Index (SI = CC50/EC50) AZTR: in round brackets
Procedure: as §1, §2

[6] = system: HIV-1 MDR (74V, 41L, 106A, 215Y); assay: Inhibition of virus-induced cytopathogenicity in MT-4 cells, NRTI-resistant mutant MDR; format: cell-based; details: for EC50: Human immunodeficiency virus 1, MT4, read-out: EC50 MDR; for Selectivity Index (SI = CC50/EC50) MDR: in round brackets
Procedure: as §1, §2

[7] = system: HIV-1 SAQR (L10F, G48V, L90M); assay: Inhibition of virus-induced cytopathogenicity in MT-4 cells, PRI-resistant mutant SAQR; format: cell-based; details: for EC50: Human immunodeficiency virus 1, MT4, read-out: EC50 SAQR; for Selectivity Index (SI = CC50/EC50) SAQR: in round brackets
Procedure: as §1, §2

HIV-2 CBL-20 strain = assay: Inhibition of HIV-2-induced cytopathogenicity in C8166 cells (MTT); format: cell-based; details: for Selectivity Index (SI = CC50/EC50) HIV-2: in round brackets
Procedure: as §1, §2

[8] = target: T1, HIV-1 reverse transcriptase (Human immunodeficiency virus type 1 group M subtype B, UniProt P04585); assay: Reverse transcriptase enzyme assay; format: biochemical; details: for Inhibition of recombinant HIV-1 RT: at concentrations of 30 μM
T1 construct: recombinant HIV-1 reverse transcriptase

[9] = target: T2, HIV-1 recombinant integrase (rIN) (Human immunodeficiency virus type 1 group M subtype B, UniProt P04585); assay: Integrase (rIN) enzyme assays: 3'-processing and strand transfer; format: biochemical; details: for Inhibition of recombinant HIV-1 IN: at concentrations of 30 μM
T2 construct: HIV-1 recombinant integrase (rIN); made in house
Excerpt: ^aCompound concentration (µM) required to reduce the amount of 3’-end-labeled duplex of 21/19mers substrates, in 3’-processing and strand-transfer reactions catalyzed by the recombinant HIV-1 integrase, by 50%. Data represent mean values for three independent determinations.

cell-free HIV-1 = assay: Virucidal activity against cell-free HIV-1 (Reed-Muench titration); format: cell-based; details: 0 °C; compound 6 80 μM, AMPH-B 100 μM
Procedure: (§3) Cell-free, high-titre HIV-1 and HIV-2 stock solutions were exposed to the test compounds for 2 h at 0 °C or 37 °C. At the end of incubation, residual infectivity was determined using the Reed–Muench end-point titration method, as described below.
(§4) Titration was performed in C8166 cells using the standard limiting dilution method (dilution 1:2, four replica wells/dilution) in 96-well plates.

cell-free HIV-2 = assay: Virucidal activity against cell-free HIV-2 (Reed-Muench titration); format: cell-based; details: 0 °C; compound 6 80 μM, AMPH-B 100 μM
Procedure: as §3, §4

[10] = Human immunodeficiency virus 2, C8166, read-out: EC50 HIV-2
[11] = read-out: IC50 Strand-transfer, recombinant HIV-1 integrase

| Structure (SMILES) | CC50 at 4 days [1] [µM] | Selectivity Index (SI) against all tested strains [2] | EC50 (HIV-1 IIIB strain; MT4, read-out: EC50 HIV-1) [µM] | Selectivity Index (SI = CC50/EC50) HIV-1 (HIV-1 IIIB strain) | EC50 (HIV-1 N119 (Y181C)) [µM] | Selectivity Index (SI = CC50/EC50) N119 (HIV-1 N119 (Y181C)) | EC50 [3] [µM] | EC50 [4] [µM] | Selectivity Index (SI = CC50/EC50) EFVR [4] | EC50 [5] [µM] | Selectivity Index (SI = CC50/EC50) AZTR [5] | EC50 [6] [µM] | Selectivity Index (SI = CC50/EC50) MDR [6] | EC50 [7] [µM] | Selectivity Index (SI = CC50/EC50) SAQR [7] | EC50 (HIV-2 CBL-20 strain; [10]) [µM] | Selectivity Index (SI = CC50/EC50) HIV-2 (HIV-2 CBL-20 strain) | Selectivity Index (SI = CC50/EC50) A17 [3] | also measured |
| --- | --- | --- | --- | --- | --- | --- | --- | --- | --- | --- | --- | --- | --- | --- | --- | --- | --- | --- | --- |
| O=c1c2ccc(Cl)cc2sn1NS(=O)(=O)c1ccccc1Cl [Compound 19, 2-Chloro-N-(6-chloro-3-oxo-1,2-benzisothiazol-2(3H)-yl)benzenesulfonamide] | 60 ± 4 | around 10 | 11 ± 3 | 5 | 14 ± 3 | 4 | ≥ 33 | 7 ± 2 | 8 | 14 ± 1 | 5 | 11 ± 2 | 5 | 21 ± 1 | 2 | 12 ± 2 | 5 |  | IC50 [8]: > 30 µM; Inhibition of recombinant HIV-1 RT [8]: none of the benzenesulfonamides were active; IC50 [9]: > 30 µM; Inhibition of recombinant HIV-1 IN [9]: none of the benzenesulfonamides were active; IC50 [9, 11]: > 30 µM |
| C[C@@H]1[C@H](O)[C@@H](C)/C=C/C=C/C=C/C=C/C=C/C=C/C=C/[C@H](O[C@@H]2O[C@H](C)[C@@H](O)[C@H](N)[C@@H]2O)C[C@@H]2O[C@](O)(C[C@@H](O)C[C@@H](O)[C@H](O)CC[C@@H](O)C[C@@H](O)CC(=O)O[C@H]1C)C[C@H](O)[C@H]2C(=O)O [AMPH-B, Amphotericin B, reference compound] |  |  |  |  |  |  |  |  |  |  |  |  |  |  |  |  |  |  | EC50 (HIV-1 IIIB strain; MT4, read-out: EC50 HIV-1 (Table 2)): 6 ± 3 µM; EC50 (HIV-2 CBL-20 strain; Human immunodeficiency virus 2, C8166, read-out: EC50 HIV-2 (Table 2)): 2 ± 0.3 µM; Effect on HIV-1 infectivity, incubation at 0 °C (cell-free HIV-1): still able to reduce it by a high percentage; Effect on HIV-2 infectivity, incubation at 0 °C (cell-free HIV-2): more than 1 log10 |
| Cc1ccc2sn(NS(=O)(=O)c3ccccc3Cl)c(=O)c2c1 [Compound 17, 2-Chloro-N-(5-methyl-3-oxo-1,2-benzisothiazol-2(3H)-yl)benzenesulfonamide] | 73 ± 0.1 | around 10 | 2 ± 1 | 36 | 5 ± 0.7 | 14 | 9 ± 3 | 5 ± 2 | 14 | 4 ± 0.7 | 18 | 3 ± 0.5 | 23 | 6 ± 1 | 12 | 4 ± 0.5 | 18 | 8 |  |
| Cc1ccc(S(=O)(=O)Nn2sc3ccccc3c2=O)cc1 [Compound 7, 4-Methyl-N-(3-oxo-1,2-benzisothiazol-2(3H)-yl)benzenesulfonamide] | 35 ± 1 | around 10 | 10 ± 3 | 3.5 | 5 ± 0.1 | 7 | 8 ± 1 | 8 ± 3 | 4 | 8 ± 1 | 4 | 6 ± 0.7 | 5 | 9 ± 2 | 3 | 4 ± 0.7 | 8 | 4 | IC50 [8]: > 30 µM; Inhibition of recombinant HIV-1 RT [8]: none of the benzenesulfonamides were active; IC50 [9]: > 30 µM; Inhibition of recombinant HIV-1 IN [9]: none of the benzenesulfonamides were active; IC50 [9, 11]: > 30 µM |
| Cc1cn([C@H]2C[C@H](N=[N+]=[N-])[C@@H](CO)O2)c(=O)[nH]c1=O [AZT, azidothymidine, reference compound] |  |  | 0.01 ± 0.003 |  | 0.02 ± 0.001 |  | 0.01 ± 0.003 | 0.01 ± 0.002 |  | 0.2 ± 0.05 |  | 0.2 ± 0.07 |  | 0.01 ± 0.005 |  | 0.008 ± 0.001 |  |  | CC50 [1]: ≥ 20 µM |
| O=c1c2ccccc2sn1NS(=O)(=O)c1ccc([N+](=O)[O-])cc1 [Compound 8, 4-Nitro-N-(3-oxo-1,2-benzisothiazol-2(3H)-yl)benzenesulfonamide] | > 100 |  | 15 ± 4 | > 7 | 7 ± 0.5 | > 14 | 11 ± 2 | 9 ± 2 | > 11 | 7 ± 0.7 |  | 6 ± 0.5 |  | 8 ± 1 |  |  |  | > 9 |  |
| CC(C)(C)NC(=O)[C@@H]1C[C@@H]2CCCC[C@@H]2CN1C[C@@H](O)[C@H](Cc1ccccc1)NC(=O)[C@H](CC(N)=O)NC(=O)c1ccc2ccccc2n1 [SAQ, saquinavir, reference compound] |  |  | 0.01 ± 0.001 |  | 0.02 ± 0.001 |  | 0.01 ± 0.002 | 0.01 ± 0.005 |  | 0.01 ± 0.005 |  | 0.02 ± 0.007 |  | 0.5 ± 0.1 |  |  |  |  | CC50 [1]: ≥ 20 µM |
| O=c1c2ccccc2sn1NS(=O)(=O)c1ccc(Cl)c(Cl)c1 [Compound 15, 3,4-Dichloro-N-(3-oxo-1,2-benzisothiazol-2(3H)-yl)benzenesulfonamide] | 66 ± 3 |  | 15 ± 4 | 4 | 7 ± 0.1 | 9 | 8 ± 2 | 8 ± 1.5 | 8 | 6 ± 1 | 11 | 11 ± 3 | 6 | 8 ± 2 | 8 |  |  | 8 |  |
| O=c1c2ccccc2sn1NS(=O)(=O)c1cc(Cl)cc(Cl)c1 [Compound 16, 3,5-Dichloro-N-(3-oxo-1,2-benzisothiazol-2(3H)-yl)benzenesulfonamide] | 86 ± 1 |  | 16 ± 5 | 5 | 7 ± 0.4 | 12 | 11 ± 2 | 10 ± 3 | 8 | 8 ± 0.7 | 10 | 13 ± 2 | 6 | 12 ± 2 | 7 |  |  | 7 |  |
